Five molecules from patent US12643899B2, “Antiviral agents, uses thereof and methods for their preparation” (The University of British Columbia, priority 2020, dated 2026) can be followed below.

The test system of data set [1] is ZIKV. Put plainly: NS1 and dsRNA in ZIKV-infected brain organoids. The format is cell-based, Zika virus. To be noted: 10 μM, 69 hours, MOI 1. On the procedure: FIG. 17 is a schematic showing the general method 20 used in Example 6. Referring to FIG. 17, following growth of the brain organoids in STEMdiff™ media 22 (4 organoids/well), the media was aspirated 24. Then, 500 μL ZIKV at the desired MOI in fresh media was added 26 and the brain organoids incubated at 37° C. for 3 hours with gentle shaking 28. The brain organoids were then washed with 2×1 mL PBS 30, and fresh media and CA or cladoniamide C (CC) added to the desired concentration 32 prior to incubation for the desired time at 37° C. 34. The supernatant was collected and frozen at −86° C. 36 prior to analysis and the brain organoids transferred to an Eppendorf with paraformaldehyde for electron microscopy 38.
FIG. 18 is a plot showing the anti-ZIKV activity of cladoniamide A (incubation with 1 μM CA for 72 hours; 2 biological replicates, each with 4 organoids/well) using four brain organoid systems. There was a greater than 4-log reduction in extracellular ZIKV titer when treated with CA. […] FIGS. 20 and 21 show plots showing the anti-ZIKV activity of CA and CC (incubation with 10 μM CA or CC for 69 hours, MOI 1; 4 technical replicates as there were 4 organoids/[…]).

Data set [2] relates to ZIKV. Put plainly: ZIKV infectivity by semisolid overlay plaque assay after pre-treatment of A549 and U87 MG cells. Conditions: CD 15 μM, A549 and U87 MG cells, FIG. 3. The format is cell-based, Zika virus.
Data set [3] relates to ZIKV. Put plainly: ZIKV viral dsRNA imaging (Cellomics ArrayScan VTI) in A549 cells. The format is cell-based, Zika virus. To be noted: 15 μM, 1 h pre-treatment, MOI 1, 48 h.
Data set [4] concerns DENV. Put plainly: Activity against DENV (summary statement, method not described). The format is cell-based, dengue virus.
The test system of data set [5] is SARS-CoV-2. Put plainly: SARS-CoV-2 intracellular viral RNA and nucleocapsid protein in Caco-2 cells. The format is cell-based. To be noted: Human Caco-2 cells, 3 hours pre-treatment.
In data set [6] the test system is A549 cells. Put plainly: MTS cytotoxicity assay in A549 cells. The format is cell-based, human. Conditions: 48 h. The method, then:
An MTS assay was performed to determine the cytotoxicity concentration 50% (CC50) of cladoniamide A (CA) in human A549 cells, a cell line from human lung carcinoma. Various concentrations of CA were added to cultured A549 cells and incubated (37° C., 5% CO2) for 48 h. Cell viability was then measured by an MTS assay kit (CellTiter 96™ Aqueous One Solution cell proliferation assay, Promega) according to the manufacturer's instructions. Curve fitting was performed in Igor Pro (WaveMetrics) using a hyperbolic fit algorithm (FIG. 1). The CC50 of CA in A549 cells was determined to be 54±5 μM. An MTS assay was also performed to determine the CC50 of CA in human U87 MG cells, a cell line from human brain. Various concentrations of CA were added to cultured U87 MG cells and incubated (37° C., 5% CO2) for 48 h. Cell viability was then measured by an MTS assay kit (CellTiter 96 Aqueous One Solution cell proliferation assay, Promega) according to the manufacturer's instructions. Curve fitting was performed in Igor Pro (WaveMetrics) using a hyperbolic fit algorithm (FIG. 2).

Data set [7] relates to ZIKV. Put plainly: Secreted NS1 (sNS1) ELISA, ZIKV-infected A549 cells. Conditions: 24 h pre-treatment, MOI 1.0, 2 d. The format is cell-based, Zika virus. On the procedure:
Error bars represent SD among 2 biological replicates.
Cultured A549 cells were treated with various concentrations of CA or PF-429242 for 24 h before being washed with PBS and inoculated with ZIKV (ZIKV strain VR 1843, Puerto Rico, 2015; ATCC) at MOI 1.0 for 1 h. Following the removal of the inoculum, cells were incubated in fresh media for 2 d before the supernatant was collected, clarified, and secreted NS1 protein abundance was measured by an ELISA kit (BioFront Technologies) according to the manufacturer's instructions. Curve fitting was performed in Igor Pro (WaveMetrics) using a hyperbolic fit algorithm (FIG. 4; upper and middle plots) and IC50 and TI values obtained. IC50 and TI values were also obtained for CA via plaque assay (PFU; FIG. 4, lower plot). FIG. 4 (upper plot) is an ED50 curve for the PF inhibitor based on the detection of secreted Non-Structural protein 1 (sNS1), secreted viral biomarker. sNS1 was detected using an Elisa test (commercially available). FIG. 4 (middle plot) is an ED50 curve for CA based on the detection of secreted Non-Structural protein 1 (sNS1), secreted viral biomarker. sNS1 was detected using an Elisa test (commercially available).
(In general: An ELISA detects its analyte on a solid surface through an enzyme-linked reagent.)

Consider `COc1c2n(c3ccccc13)[C@]1(O)C(=O)N(C)C(=O)[C@]1(O)c1c-2[nH]c2ccccc12` [CC, (11S,15R)-11,15-dihydroxy-23-methoxy-13-methyl-3,13,16-triazahexacyclo[14.7.0.0^2,10.0^4,9.0^11,15.0^17,22]tricosa-1(23),2(10),4,6,8,17,19,21-octaene-12,14-dione], for which, in data set [1], the “anti-ZIKV activity in brain organoids (NS1, dsRNA)” value was “showed anti-ZIKV activity”.
Regarding `CNC(=O)[C@]1(O)C(=O)c2c([nH]c3ccc(Cl)cc23)-c2c(OC)c3ccccc3n21` [CD, (12R)-7-chloro-12-hydroxy-20-methoxy-N-methyl-11-oxo-3,13-diazapentacyclo[11.7.0.0^2,10.0^4,9.0^14,19]icosa-1(20),2(10),4(9),5,7,14,16,18-octaene-12-carboxamide], in data set [2], the “inhibitory effect on production of infectious ZIKV virions” value is recorded as “did not show any inhibitory effect”. Further, the “activity against ZIKV (viral dsRNA)” value in data set [3] is “did not show any inhibitory effect”. In addition, in data set [4], the “activity against DENV” value is on record as “no activity”. Besides, the “antiviral effect against SARS-CoV-2” value in data set [5] is “no antiviral effect”.
`CNC(=O)[C@]1(O)C(=O)c2c([nH]c3ccc(Cl)cc23)-c2c(OC)c3cc(Cl)ccc3n21` [CE, (12R)-7,17-dichloro-12-hydroxy-20-methoxy-N-methyl-11-oxo-3,13-diazapentacyclo[11.7.0.0^2,10.0^4,9.0^14,19]icosa-1(20),2(10),4(9),5,7,14(19),15,17-octaene-12-carboxamide]: the “activity against ZIKV (viral dsRNA)” value in data set [3] is on record as “did not show any inhibitory effect”.
Still for that read-out and setting: with `CNC(=O)[C@@]1(O)C(=O)n2c(c(OC)c3ccccc32)-c2[nH]c3ccc(Cl)cc3c21` [CF, (11R)-7-chloro-11-hydroxy-20-methoxy-N-methyl-12-oxo-3,13-diazapentacyclo[11.7.0.0^2,10.0^4,9.0^14,19]icosa-1(20),2(10),4(9),5,7,14,16,18-octaene-11-carboxamide] the entry was “did not show any inhibitory effect”.
By CC50 is commonly meant the concentration giving 50% cytotoxicity. A high value points to better tolerance by the cells. The term IC50 denotes the concentration needed to halve the response being measured. Regarding `CCN(CC)Cc1ccc(C(=O)N(CCc2ccccc2OC)[C@@H]2CCNC2)cc1` [PF, PF-429242, reference compound], the CC50 in data set [6] stood at 69 µM. For the same molecule, the IC50 in data set [7] turned out to be 13 µM.
